Measured values from patent US11292791B2 (priority 2017, dated 2022).

biological target: BRD4 (Homo sapiens (Human), UniProt O60885); details: read-out: BRD4 IC50 (μM gmean)

Structure (SMILES) | IC50 [µM]
COC(=O)N1c2ccc3c(nc(C(C)(O)c4ccccc4)n3C3CCCC(C(=O)O)C3)c2CC[C@@H]1C (some centres unmarked) [Example 607] | 1 to 1000
COC(=O)N1c2ccc3c(nc(S(=O)(=O)c4ccccc4)n3[C@H]3CC[C@H](C(=O)O)CC3)c2CC[C@@H]1C [Example 895] | 1 to 1000
COC(=O)N1c2ccc3c(nc(CCn4ccccc4=O)n3CC(=O)N[C@H](C)CO)c2CC[C@@H]1C [Example 378] | 1 to 1000
COC(=O)N1c2ccc3c(nc(C(C)(C)c4ccc(OC)c(F)c4)n3[C@H]3CC[C@H](C(=O)O)CC3)c2CC[C@@H]1C [Example 560] | 1 to 1000
COC(=O)N1c2ccc3c(nc(Cc4ccc(OC)c(OC)c4)n3[C@H]3CC[C@H](C(=O)O)CC3)c2CC[C@@H]1C [Example 740] | 1 to 1000
COC(=O)N1c2ccc3c(nc(CCn4cccn4)n3CC(=O)N3CCC(O)CC3)c2CC[C@@H]1C [Example 352] | 1 to 1000
COC(=O)N1c2ccc3c(nc(CC(C(=O)O)c4ccc(C)cc4)n3C3CCCOC3)c2CC[C@@H]1C (some centres unmarked) [Example 497] | 1 to 1000
COC(=O)N1c2ccc3c(nc(COc4ccccc4)n3[C@H]3CC[C@H](C(=O)O)CC3)c2CC[C@@H]1C [Example 633] | 1 to 1000
COC(=O)N1c2ccc3c(nc(CC(C(=O)O)c4ccccc4)n3-c3ccc(OC)cc3)c2CC[C@@H]1C (some centres unmarked) [Example 849] | 1 to 1000
COC(=O)N1c2ccc3c(nc(C(C)Cn4cc(C(F)F)cn4)n3C3CCCC(C(=O)O)C3)c2CC[C@@H]1C (some centres unmarked) [Example 492] | 1 to 1000
COC(=O)N1c2ccc3c(nc(CCc4nnc(C)o4)n3[C@H]3CC[C@H](C(=O)O)CC3)c2CC[C@@H]1C [Example 38] | 1 to 1000
COC(=O)N1c2ccc3c(nc(CC(C(=O)O)c4ccc(Cl)cc4)n3C3CCCOC3)c2CC[C@@H]1C (some centres unmarked) [Example 495] | 1 to 1000
COC(=O)N1c2ccc3c(nc(CCn4ccc(C)n4)n3[C@H]3CC[C@H](C(=O)O)CC3)c2CC[C@@H]1C [Example 39] | 1 to 1000
COC(=O)N1c2ccc3c(nc(C(C)(C)C)n3CCN3CCOCC3)c2CC[C@@H]1C [Example 249] | 1 to 1000
COC(=O)N1c2ccc3c(nc(C(C)Cn4cc(Cl)cn4)n3C3CCS(=O)(=O)C3)c2CC[C@@H]1C (some centres unmarked) [Example 651] | 1 to 1000
COC(=O)N1c2ccc3c(nc(N(C)c4ccccc4)n3[C@@H]3CCC[C@@H](C(=O)O)C3)c2CC[C@@H]1C [Example 787] | 1 to 1000
COC(=O)N1c2ccc3c(nc(CCc4nc(C)no4)n3[C@H]3CC[C@H](C(=O)O)CC3)c2CC[C@@H]1C [Example 42] | 1 to 1000
COC(=O)N1c2ccc3c(nc(CC4CCOCC4)n3[C@@H]3CCC[C@@H](C(=O)O)C3)c2CC[C@@H]1C [Example 863] | 1 to 1000
COC(=O)N1c2ccc3c(nc(Cc4ccccc4)n3C3CC4CCC(C3)N4)c2CC[C@@H]1C (some centres unmarked) [Example 83] | 1 to 1000
COC(=O)N1c2ccc3c(nc(OCc4ccccc4)n3[C@H]3CC[C@H](C(=O)O)CC3)c2CC[C@@H]1C [Example 792] | 1 to 1000
COC(=O)N1c2ccc3c(nc(CCn4ccccc4=O)n3CCN(C)C3CCOCC3)c2CC[C@@H]1C [Example 325] | 1 to 1000
COC(=O)N1c2ccc3c(nc(Cc4cccc(OC)c4)n3C3CC4(CNC4)C3)c2CC[C@@H]1C [Example 110] | 1 to 1000
COC(=O)N1c2ccc3c(nc(CCn4ccccc4=O)n3C)c2CC[C@@H]1C [Example 15] | 1 to 1000

Structure (SMILES) | IC50 [µM]
COC(=O)N1c2ccc3c(nc(Cc4ccc(NC(C)=O)c(F)c4)n3[C@H]3CC[C@H](C(=O)O)CC3)c2CC[C@@H]1C [Example 639] | 1 to 1000
COC(=O)N1c2ccc3c(nc(CC(C(=O)O)c4ccccc4)n3-c3ccc(OC)cc3)c2CC[C@@H]1C (some centres unmarked) [Example 536] | 1 to 1000
COC(=O)N1c2ccc3c(nc(Cc4cccc(F)c4)n3C3CCNCC3)c2CC[C@@H]1C [Example 102] | 1 to 1000
COC(=O)N1c2ccc3c(nc(Nc4ccc(F)cc4)n3[C@H]3CC[C@H](C(=O)O)CC3)c2CC[C@@H]1C [Example 880] | 1 to 1000
COC(=O)N1c2ccc3c(nc(CCn4ccccc4=O)n3CC(=O)N3CCC(F)(F)C3)c2CC[C@@H]1C [Example 401] | 1 to 1000
COC(=O)N1c2ccc3c(nc(CCn4cccn4)n3CCN3CCN(CCO)CC3)c2CC[C@@H]1C [Example 313] | 1 to 1000
COC(=O)N1c2ccc3c(nc(CCn4ccccc4=O)n3CCNCc3ncnn3C)c2CC[C@@H]1C [Example 317] | 1 to 1000
COC(=O)N1c2ccc3c(nc(CCn4cccn4)n3CC(=O)NCCc3ccccn3)c2CC[C@@H]1C [Example 338] | 1 to 1000
COC(=O)N1c2ccc3c(nc(C(C)Oc4cnccn4)n3C3CCC(C(=O)O)CC3)c2CC[C@@H]1C (some centres unmarked) [Example 833] | 1 to 1000
COC(=O)N1c2ccc3c(nc(C(c4ccc(OC)c(F)c4)C(C)C)n3C3CCC(C(=O)O)CC3)c2CC[C@@H]1C (some centres unmarked) [Example 466] | 1 to 1000
COC(=O)N1c2ccc3c(nc(CCc4cnc(C)o4)n3[C@H]3CC[C@H](C(=O)O)CC3)c2CC[C@@H]1C [Example 33] | 1 to 1000
COC(=O)N1c2ccc3c(nc(C(O)C4CCCC4)n3C3CCCC(C(=O)O)C3)c2CC[C@@H]1C (some centres unmarked) [Example 762] | 1 to 1000
COC(=O)N1c2ccc3c(nc(CCc4cccc(OC)c4)n3C3CC4(CNC4)C3)c2CC[C@@H]1C [Example 100] | 1 to 1000
COC(=O)N1c2ccc3c(nc(CC(C(=O)O)c4cccc(C(F)F)c4)n3C3CCCOC3)c2CC[C@@H]1C (some centres unmarked) [Example 676] | 1 to 1000
COC(=O)N1c2ccc3c(nc(CCn4cccn4)n3CCN3CCN(C)CC3)c2CC[C@@H]1C [Example 227] | 1 to 1000
COC(=O)N1c2ccc3c(nc(Oc4ccccc4)n3[C@H]3CC[C@H](C(=O)O)CC3)c2CC[C@@H]1C [Example 908] | 1 to 1000
COC(=O)N1c2ccc3c(nc(C)n3CCN3CCOCC3)c2CC[C@@H]1C [Example 248] | 1 to 1000
COC(=O)N1c2ccc3c(nc(CCn4cccn4)n3CCNCC(=O)N3CCCC3)c2CC[C@@H]1C [Example 300] | 1 to 1000
COC(=O)N1c2ccc3c(nc([C@H](CO)c4ccccc4)n3C3CCOCC3)c2CC[C@@H]1C [Example 46, methyl (7S)-2-[(1R)-2-hydroxy-1-phenylethyl]-7-methyl-3-(oxan-4-yl)-3H,6H,7H,8H,9H-imidazo[4,5-f]quinoline-6-carboxylate] | 1 to 1000
COC(=O)N1c2ccc3c(nc(Cc4ccccc4C#N)n3[C@H]3CC[C@H](C(=O)O)CC3)c2CC[C@@H]1C [Example 706] | 1 to 1000
COC(=O)N1c2ccc3c(nc(Cc4cccc(OC(C)C)n4)n3[C@H]3CC[C@H](C(=O)O)CC3)c2CC[C@@H]1C [Example 780] | 1 to 1000
COC(=O)N1c2ccc3c(nc(CCc4nc(C)co4)n3[C@H]3CC[C@H](C(=O)O)CC3)c2CC[C@@H]1C [Example 36] | 1 to 1000
COC(=O)N1c2ccc3c(nc(Cc4cccc(C)c4)n3[C@@H]3CCC[C@@H](C(=O)O)C3)c2CC[C@@H]1C [Example 718] | 1 to 1000

Structure (SMILES) | IC50 [µM]
COC(=O)N1c2ccc3c(nc(C(CO)c4ccccc4)n3C3CCC(C(=O)O)CC3)c2CC[C@@H]1C (some centres unmarked) [Example 812] | 1 to 1000
COC(=O)N1c2ccc3c(nc(CCn4ccccc4=O)n3CC(=O)NCc3cc(C)no3)c2CC[C@@H]1C [Example 391] | 1 to 1000
COC(=O)N1c2ccc3c(nc(Cc4ccccc4)n3C3CCC4(CC3)CNC4)c2CC[C@@H]1C [Example 96] | 1 to 1000
COC(=O)N1c2ccc3c(nc(C(=O)N(C)c4ccccc4)n3[C@@H]3CCC[C@@H](C(=O)O)C3)c2CC[C@@H]1C [Example 934] | 1 to 1000
COC(=O)N1c2ccc3c(nc(C(c4ccccc4)[S+](C)[O-])n3C3CCC(C(=O)O)CC3)c2CC[C@@H]1C (some centres unmarked) [Example 725] | 1 to 1000
COC(=O)N1c2ccc3c(nc(Nc4ccc(OC)cc4F)n3[C@@H]3CCC[C@@H](C(=O)O)C3)c2CC[C@@H]1C [Example 846] | 1 to 1000
COC(=O)N1c2ccc3c(nc(C(c4ccc(OC)c(F)c4)C(C)C)n3C3CCC(C(=O)O)CC3)c2CC[C@@H]1C (some centres unmarked) [Example 673] | 1 to 1000
COC(=O)N1c2ccc3c(nc(Nc4ccncc4F)n3[C@@H]3CCC[C@@H](C(=O)O)C3)c2CC[C@@H]1C [Example 941] | 1 to 1000
COC(=O)N1c2ccc3c(nc(CCn4ccccc4=O)n3CC(=O)NCCN3CCNC3=O)c2CC[C@@H]1C [Example 395] | 1 to 1000
COC(=O)N1c2ccc3c(nc(C(C)Cn4cc(Cl)cn4)n3C3CCS(=O)(=O)C3)c2CC[C@@H]1C (some centres unmarked) [Example 930] | 1 to 1000
COC(=O)N1c2ccc3c(nc(Cc4cncc(Cl)n4)n3[C@@H]3CCC[C@@H](C(=O)O)C3)c2CC[C@@H]1C [Example 645] | 1 to 1000
COC(=O)N1c2ccc3c(nc(CC(C(=O)O)c4ccc(C5CC5)cc4)n3C3CCCOC3)c2CC[C@@H]1C (some centres unmarked) [Example 904] | 1 to 1000
COC(=O)N1c2ccc3c(nc(CCn4ccccc4=O)n3CC(=O)NC[C@H]3CCCO3)c2CC[C@@H]1C [Example 376] | 1 to 1000
COC(=O)N1c2ccc3c(nc(C(C)Cn4cc(Cl)cn4)n3C3CCCC(C(=O)O)C3)c2CC[C@@H]1C (some centres unmarked) [Example 443] | 1 to 1000
COC(=O)N1c2ccc3c(nc(CCn4ccccc4=O)n3CCN3CCOCC3)c2CC[C@@H]1C [Example 272] | 1 to 1000
COC(=O)N1c2ccc3c(nc(Cc4ccccc4)n3[C@H]3CC[C@@H](c4nnn[nH]4)CC3)c2CC[C@@H]1C [Example 284] | 1 to 1000
COC(=O)N1c2ccc3c(nc(CC(C(=O)O)c4ccccc4)n3C3COCC(F)(F)C3)c2CC[C@@H]1C (some centres unmarked) [Example 602] | 1 to 1000
COC(=O)N1c2ccc3c(nc(CC(C(=O)O)c4ccccc4)n3C3COCC(F)(F)C3)c2CC[C@@H]1C (some centres unmarked) [Example 903] | 1 to 1000
COC(=O)N1c2ccc3c(nc(COC4CCCCC4)n3[C@@H]3CCC[C@@H](C(=O)O)C3)c2CC[C@@H]1C [Example 702] | 1 to 1000
COC(=O)N1c2ccc3c(nc(C4(n5cc(Cl)cn5)CC4)n3[C@H]3CC[C@H](C(=O)O)CC3)c2CC[C@@H]1C [Example 617] | 1 to 1000
COC(=O)N1c2ccc3c(nc(Cc4ccc(OC)c(F)c4)n3[C@@H]3CCC[C@@H](C(=O)O)C3)c2CC[C@@H]1C [Example 481] | 1 to 1000
COC(=O)N1c2ccc3c(nc(Cc4ccc(OC5CC5)nc4)n3[C@@H]3CCC[C@@H](C(=O)O)C3)c2CC[C@@H]1C [Example 562] | 1 to 1000
